Structures are written as SMILES. Like-named read-outs stand apart in the source and are kept apart here.

The nature of series [1]: Chronic treatment with the diet water in obese-Zucker rats: levels in plasma, urine and kidney.
Procedure: The stability of L- and D-carnosine was compared in human plasma and serum in vitro, and in vivo in the rat (acute and chronic treatment). An LC-MS/MS technique, validated in the 5-250 μM range, with detection limits of 50-20 picomoles, was set-up for this purpose.
In chronic treatment, D- and L-camosine were administered with the diet water for 12 weeks at a dose of 30 mg/Kg. The experiment was carried out by using obese-Zucker rats (Charles River), an animal model of metabolic disorders, characterized by hyperinsulinemia, insulin resistance, obesity, hypertriglyceridemia, hypercholesterolemia, and by an increased formation of lipid derived carbonyls, protein carbonylation and appearance of carbonyl-dependent degenerative process such as nephropathy and vascular dysfunction, (Metz T O, Alderson N L, Chachich M E, Thorpe S R, Baynes J W, Pyridoxamine traps intermediates in lipid peroxidation reactions in vivo: evidence on the role of lipids in chemical modification of protein and development of diabetic complications, J Biol Chem. 2003 October 24;278(43):42012-9.
Series [2] in a line: Crossing of the blood-brain barrier (stated, no method).
Series [3] in a line: Reactivity towards HNE in homogeneous solution (aldehyde consumption by liquid chromatography). The class given is biochemical. The note with it: for inhibited HNE: HNE 10 μm in 10 mM phosphate buffer, molar ratios 1:10 and 1:20. The method, then:
The almost identical reactivity compared with the L-form towards cytotoxic aldehydes, especially HNE and acrolein, was confirmed in a homogenous solution of HNE (10 μm) and acrolein (200 μm) in 10 mM phosphate buffer in molar ratios of the dipeptides amounting to 1:10 and 1:20. […]

A short description of series [4]: In vitro stability in human plasma (LC-MS/MS). To be noted: after 6 hours incubation at 37° C., in the presence and absence of cadmium chloride.
Series [5] in a line: In vivo acute study, oral administration to Wistar rats. The note with it: 570 mg/kg.
Procedure: (§1) An LC-MS/MS technique, validated in the 5-250 μM range, with detection limits of 50-20 picomoles, was set-up for this purpose.
(§2) In the in vivo acute studies, D- and L-carnosine were administered orally to Wistar rats (320 g±25 g) in the form of an aqueous solution at pH 7.4 (HCl) at the dose of 570 mg/kg.
The test system of the next series is Zucker rats. Description: Pharmacological effects of chronic treatment in Zucker rats. The class given is in vivo. The text has this: In particular, D-carnosine is effective for the treatment or prevention of disorders involving highly reactive and cytotoxic carbonyl derivatives (HNE, acrolein, malonyldialdehyde, glyoxal and dimethylglyoxal), especially Alzheimer's disease, atherosclerosis, disorders secondary to diabetes, age-associated tissue degeneration such as sarcopenia, and correlated disorders. Forms designed for topical administration are particularly indicated for the latter.

The conditions of series [6]: rat, in vivo, po, 570 mg/kg.
Procedure: as §1, §2
The next series has as its target T1, carnosinases (Homo sapiens, UniProt Q96KN2).
T1 construct: host or cells: human serum
T1 sequence (Q96KN2 27-507 limits assumed): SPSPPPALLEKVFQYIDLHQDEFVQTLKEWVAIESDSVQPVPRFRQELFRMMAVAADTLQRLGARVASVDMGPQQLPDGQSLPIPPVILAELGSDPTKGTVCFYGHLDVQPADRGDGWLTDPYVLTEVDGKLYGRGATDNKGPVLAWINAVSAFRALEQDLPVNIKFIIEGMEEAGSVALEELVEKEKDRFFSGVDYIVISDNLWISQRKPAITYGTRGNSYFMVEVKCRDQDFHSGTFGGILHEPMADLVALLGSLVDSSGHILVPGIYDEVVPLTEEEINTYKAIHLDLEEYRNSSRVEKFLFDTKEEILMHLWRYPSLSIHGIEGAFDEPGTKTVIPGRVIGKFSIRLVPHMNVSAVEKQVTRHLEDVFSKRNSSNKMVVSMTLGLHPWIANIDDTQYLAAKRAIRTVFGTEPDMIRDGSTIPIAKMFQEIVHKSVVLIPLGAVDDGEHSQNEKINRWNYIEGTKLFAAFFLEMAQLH
The note with it: cited from earlier work.

The mark [7] stands for this setting: 30 mg/Kg with the diet water for 12 weeks.

`NCCC(=O)N[C@H](Cc1cnc[nH]1)C(=O)O` [D-carnosine]: in series [1] (setting [7]), the level in plasma turned out to be 1240 ± 300 nM, the “level in the kidney” value is reported as 340.2±12.3 nmoles/gr wt tissue and the level in urine was determined as 6688±345 nmoles over 24 hrs. Besides, in series [1] (30 mg/Kg, 12 weeks), the “increase of D-carnosine in respect to L-carnosine in plasma” value turned out to be 6 fold and the “increase of D-carnosine in respect to L-carnosine in urine as well as in the kidney” value is given as “more than a ten-fold increase”. The blood-brain barrier crossing result in series [2] is “able to cross the blood-brain barrier”. Moreover, in [3], the “activity towards HNE compared with aminoguanidine and methoxyamine” value was “far more active towards HNE than aminoguanidine and methoxyamine”; the “reaction kinetics with HNE” value is “first-order profile”. In series [3] (after 24 hours), the “inhibited HNE” value is reported as 98.3%. Moreover, the “inhibited HNE” value in [3] (after one hour's incubation) turned out to be 49.2%. For the same molecule, the “stability in human plasma” value in series [4] is given as “remained unchanged”. Further, in series [5], the “Cmax reached at (time)” value was 2 h, the “pharmacological levels maintained up to” value is recorded as “up to 8 hours” and the “time to disappear from the administration” value came to 24 h. Moreover, the “pharmacological effects of chronic treatment” value in the series with Zucker rats is “restrain: hypertriglyceridemia, hypercholesterolemia, hyperthenison, and carbonyl related disesases such as vascular dysfunction and nephropathy”.
As to `NCCC(=O)N[C@@H](Cc1cnc[nH]1)C(=O)O` [L-carnosine, β-alanyl-L-histidine], the “stability in human plasma” value is reported as “undetectable”. In addition, the “inhibited HNE” value in [3] (after 24 hours) came out at 96.4%. Moreover, the “inhibited HNE” value in [3] (after one hour's incubation) amounted to 44%. For the same molecule, the “time to disappear from the administration” value in [6] (Wistar) was no more than 2 h. Moreover, in series [6], the “Cmax (time at which reached)” value was determined as 60 min. Also, the “hydrolysis in human serum” value at carnosinases was “rapidly hydrolysed”.

Values taken from US20080194493A1, “Compositions Containing D-Carnosine” (priority 2004, published 2008).
